# Assay results as given in patent US9822382B2, “Process for making ethanol by fermentation” (Evonik Degussa GmbH, priority 2014, dated 2017).
# Key:
# Rod bacteria [1] = assay: Rod bacteria cell count and infection rate, laboratory treatment of yeast cream and fermentation; assay type: cell-based
# Description: (§1) Bacterial and yeast cell counts, yeast cell viability and yeast flocculation were determined as described in A. J. Oliveira et al., Curso de treinamento em microbiologia, Piracicaba: FERMENTEC and ESALQ, 1996 and in A. J. Oliveira et al., Métodos para o controle microbiológico na produção de açúcar e álcool, Piracicaba: FERMENTEC, FEALQ and ESALQ, 1996. Bacterial infection rates were calculated as the ratio of the rod bacteria cell count and the yeast cell count.
# (§2) The examples were carried out with a yeast cream obtained by separating yeast from a fermented sugar cane mush from a sugar cane ethanol production mill operating with batch fermentation and yeast recycle. The yeast cream was diluted with water to a yeast cell content of about 24% by weight and the pH of the diluted yeast cream was adjusted to a value of 1.8 by adding sulfuric acid.
# Then 322 ml of acidified diluted yeast cream were placed in a vessel and 678 ml of cane must having a pH of 6.2 were added with mixing in 5 portions with 1 h intervals between additions. Fermentation of the cane must with the acidified diluted yeast cream was carried out at 33° C. for 21 h. The final pH of the fermented mash was 4.8.
# In example 2, equilibrium peroxyacetic acid PERACLEAN® 15 of Evonik was added to the acidified diluted yeast cream in an amount of 50 mg/l and the resulting treated yeast concentrate was kept at 30° C. for 1.7 hours before it was analyzed microbiologically. Thereafter, fermentation was carried out as in example 1.
# Examples 1 and 2 were repeated without adding peroxyacetic acid in example 3 and with addition of equilibrium peroxyacetic acid PERACLEAN® 15 in an amount of 60 mg/l peroxyacetic acid in example 4. The treated yeast cream was kept at 30° C. for 2 hours before it was analyzed microbiologically and fermentation was started.
# as §2, with “that operates” for “operating”, “fed-batch” for “batch”, “27%” for “24%”, “weight. The” for “weight and the”, “4.0.” for “adjusted to a value of 1.8 by adding sulfuric acid.”
# In example 6, equilibrium peroxyacetic acid PERACLEAN® 15 of Evonik was added to the diluted yeast cream in an amount of 50 mg/l and the resulting treated yeast concentrate was kept at 30° C. for 2.3 hours before it was analyzed microbiologically.
# In example 8, the pH of the diluted yeast cream was adjusted as in example 7, equilibrium peroxyacetic acid PERACLEAN® 15 of Evonik was added to the acidified diluted yeast cream in an amount of 50 mg/l and the resulting treated yeast concentrate was kept at 30° C. for 2.0 hours before it was analyzed microbiologically.
# Rod bacteria [2] = assay: Rod bacteria cell count and infection rate in fermented mash, sugar cane ethanol production mill trial; assay type: cell-based
# Description: as §1
# Examples 9 to 11 were carried out in a sugar cane ethanol production mill operating 6 fermenters in fed-batch. The fermented mash is sent to a centrifuge which separates yeast cream with an average yeast content of 63% by weight. The yeast cream is diluted with water to an average yeast content of 27% by weight and transferred to a stirred yeast cream recovery tank. Diluted yeast cream is passed continuously from this tank to a stirred yeast treatment tank at a rate of from 42 to 127 m^3/h. Sulfuric acid is added to the yeast treatment tank to maintain a pH in the range from 1.8 to 2.8. The average residence time in both the yeast cream recovery tank and the yeast treatment tank is in the range of from 1.3 to 4.0 h. Fermentation is carried out by charging the acidified yeast concentrate to a fermenter over a 1 to 2 h period, followed by feeding sugar cane mash with a sugar content of 22° Brix and a pH of 5.8 to the fermenter over a 6 h period. Fermentation is continued for a further 2 h without feed and the fermented mash is sent to a centrifuge. Bacterial contamination was monitored by microbiological analysis of samples of fermented mash taken before feeding the mash to a centrifuge. Samples were analyzed for bacterial and yeast cell counts and for yeast cell viability and yeast flocculation.
# In example 9, equilibrium peroxyacetic acid PERACLEAN® 15 of Evonik was dosed to the yeast treatment tank for 28 h in an amount of 60 ppm during days 3 and 4 of the experiment. pH in the yeast treatment tank was maintained in the range of from 1.84 to 2.02.
# In example 10, equilibrium peroxyacetic acid PERACLEAN® 15 of Evonik was dosed to the yeast treatment tank for 43 h during days 6 and 7 of the experiment in an amount that was lowered stepwise from 49 ppm to 20 ppm. pH in the yeast treatment tank was maintained in the range of from 1.97 to 2.60.
# In example 11, equilibrium peroxyacetic acid PERACLEAN® 15 of Evonik was dosed to the yeast cream recovery tank on days 2 and 3 of the experiment for 13 h in an amount of 50 ppm, followed by dosing for 28 h in an amount of 30 ppm. During this period the pH in the yeast cream recovery tank was in the range of from 3.0 to 3.3. Then dosing of peroxyacetic acid to the yeast cream recovery tank was stopped and peroxyacetic acid was dosed to the yeast treatment tank for 18 h in an amount of 30 ppm. During this period the pH in the yeast treatment tank was about 2.0.
# [3] = Example 4, 60 ppm, pH 1.8, treated yeast concentrate, 30° C. 2 hours
# [4] = Example 6, 50 mg/l, no pH adjustment (pH 4.17), treated yeast concentrate, 30° C. 2.3 hours
# [5] = Example 8, 50 mg/l, pH adjusted to 2.0 with sulfuric acid (pH 2.40), treated yeast concentrate, 30° C. 2.0 hours
# [6] = Example 9, fermenter 2, day 3, 60 ppm to yeast treatment tank during days 3 and 4, pH 1.84 to 2.02
# [7] = Example 9, fermenter 2, day 4, 60 ppm to yeast treatment tank during days 3 and 4, pH 1.84 to 2.02
# [8] = Example 9, fermenter 2, day 5, after addition (60 ppm, days 3 and 4) was stopped
# [9] = Example 9, fermenter 4, day 3, 60 ppm to yeast treatment tank during days 3 and 4, pH 1.84 to 2.02
# [10] = Example 9, fermenter 4, day 4, 60 ppm to yeast treatment tank during days 3 and 4, pH 1.84 to 2.02
# [11] = Example 9, fermenter 4, day 6, after addition (60 ppm, days 3 and 4) was stopped
# [12] = Example 10, fermenter 2, day 6, 49 ppm lowered stepwise to 20 ppm to yeast treatment tank during days 6 and 7, pH 1.97 to 2.60
# [13] = Example 10, fermenter 2, day 7, 49 ppm lowered stepwise to 20 ppm to yeast treatment tank during days 6 and 7, pH 1.97 to 2.60
# [14] = Example 10, fermenter 2, day 8, after dosing during days 6 and 7
# [15] = Example 10, fermenter 2, day 9, after dosing during days 6 and 7
# [16] = Example 10, fermenter 3, day 6, 49 ppm lowered stepwise to 20 ppm to yeast treatment tank during days 6 and 7, pH 1.97 to 2.60
# [17] = Example 10, fermenter 3, day 7, 49 ppm lowered stepwise to 20 ppm to yeast treatment tank during days 6 and 7, pH 1.97 to 2.60
# [18] = Example 10, fermenter 3, day 8, after dosing during days 6 and 7
# [19] = Example 10, fermenter 3, day 9, after dosing during days 6 and 7
# [20] = Example 11, fermenter 3, day 2, 50 ppm then 30 ppm to yeast cream recovery tank on days 2 and 3, pH 3.0 to 3.3
# [21] = Example 11, fermenter 3, day 4, after recovery tank dosing, 30 ppm to yeast treatment tank for 18 h, pH about 2.0
# [22] = Example 11, fermenter 3, day 6, after the dosing periods
# [23] = Example 11, fermenter 6, day 2, 50 ppm then 30 ppm to yeast cream recovery tank on days 2 and 3, pH 3.0 to 3.3
# [24] = Example 11, fermenter 6, day 3, 50 ppm then 30 ppm to yeast cream recovery tank on days 2 and 3, pH 3.0 to 3.3
# [25] = Example 11, fermenter 6, day 5, after the dosing periods
structure (smiles),measurement,setting,value
CC(=O)OO [peroxyacetic acid],Infection rate in %,Rod bacteria [1]; [3],0.3%
same,Rod bacteria cells/ml,Rod bacteria [1]; [3],1.8*10^6 cells/ml
same,Infection rate in %,Rod bacteria [1]; [4],8.3%
same,Rod bacteria cells/ml,Rod bacteria [1]; [4],68*10^6 cells/ml
same,Infection rate in %,Rod bacteria [1]; [5],1.7%
same,Rod bacteria cells/ml,Rod bacteria [1]; [5],14*10^6 cells/ml
same,effectiveness of treatment of the yeast concentrate against bacterial contamination,Rod bacteria [1]; pH not adjusted to the claimed range by addition of acid (table 5),ineffective
same,combined effect of pH adjustment with mineral acid and peroxyacetic acid addition,"Rod bacteria [1]; table 5, Examples 5 to 8",synergistic effect
same,bacterial contamination of the fermented mash,Rod bacteria [1]; treatment of the yeast concentrate at pH 1.8 before using it for the fermentation,effective in preventing bacterial contamination
same,Infection rate in %,Rod bacteria [2]; [6],11%
same,Rod bacteria cells/ml,Rod bacteria [2]; [6],28*10^6 cells/ml
same,Infection rate in %,Rod bacteria [2]; [7],10%
same,Rod bacteria cells/ml,Rod bacteria [2]; [7],39*10^6 cells/ml
same,Infection rate in %,Rod bacteria [2]; [8],18%
same,Rod bacteria cells/ml,Rod bacteria [2]; [8],51*10^6 cells/ml
same,Infection rate in %,Rod bacteria [2]; [9],11%
same,Rod bacteria cells/ml,Rod bacteria [2]; [9],53*10^6 cells/ml
same,Infection rate in %,Rod bacteria [2]; [10],3%
same,Rod bacteria cells/ml,Rod bacteria [2]; [10],20*10^6 cells/ml
same,Infection rate in %,Rod bacteria [2]; [11],22%
same,Rod bacteria cells/ml,Rod bacteria [2]; [11],57*10^6 cells/ml
same,bacterial contamination and yeast flocculation,"Rod bacteria [2]; Example 9, upon addition of 60 ppm to yeast treatment tank, return when addition is stopped",reduced
same,control of bacterial contamination and yeast flocculation,"Rod bacteria [2]; Example 10, continuous addition of 20 ppm to the acidified yeast concentrate",sufficient to control bacterial contamination and avoid yeast flocculation
same,Infection rate in %,Rod bacteria [2]; [12],2.8%
same,Rod bacteria cells/ml,Rod bacteria [2]; [12],9.6*10^6 cells/ml
same,Infection rate in %,Rod bacteria [2]; [13],0.5%
same,Rod bacteria cells/ml,Rod bacteria [2]; [13],1.4*10^6 cells/ml
same,Infection rate in %,Rod bacteria [2]; [14],8.1%
same,Rod bacteria cells/ml,Rod bacteria [2]; [14],24*10^6 cells/ml
same,Infection rate in %,Rod bacteria [2]; [15],11%
same,Rod bacteria cells/ml,Rod bacteria [2]; [15],29*10^6 cells/ml
same,Infection rate in %,Rod bacteria [2]; [16],1.5%
same,Rod bacteria cells/ml,Rod bacteria [2]; [16],3.0*10^6 cells/ml
same,Infection rate in %,Rod bacteria [2]; [17],0.2%
same,Rod bacteria cells/ml,Rod bacteria [2]; [17],0.7*10^6 cells/ml
same,Infection rate in %,Rod bacteria [2]; [18],4.4%
same,Rod bacteria cells/ml,Rod bacteria [2]; [18],13*10^6 cells/ml
same,Infection rate in %,Rod bacteria [2]; [19],7.5%
same,Rod bacteria cells/ml,Rod bacteria [2]; [19],22*10^6 cells/ml
same,effectiveness of addition depending on pH of yeast concentrate,"Rod bacteria [2]; Example 11, dosing at pH 3.0 to 3.3 versus about 2.0",effective only for an acidified yeast concentrate at a pH of less than 3.0
same,Infection rate in %,Rod bacteria [2]; [20],11%
same,Rod bacteria cells/ml,Rod bacteria [2]; [20],32*10^6 cells/ml
same,Infection rate in %,Rod bacteria [2]; [21],2%
same,Rod bacteria cells/ml,Rod bacteria [2]; [21],8.4*10^6 cells/ml
same,Infection rate in %,Rod bacteria [2]; [22],18%
same,Rod bacteria cells/ml,Rod bacteria [2]; [22],24*10^6 cells/ml
same,Infection rate in %,Rod bacteria [2]; [23],5%
same,Rod bacteria cells/ml,Rod bacteria [2]; [23],23*10^6 cells/ml
same,Infection rate in %,Rod bacteria [2]; [24],5%
same,Rod bacteria cells/ml,Rod bacteria [2]; [24],14*10^6 cells/ml
same,Infection rate in %,Rod bacteria [2]; [25],10%
same,Rod bacteria cells/ml,Rod bacteria [2]; [25],25*10^6 cells/ml
